Source: patent US9018188B2, “MicroRNA inhibitors” (Ottawa Hospital Research Institute, priority 2011, dated 2015)

Columns and labels:
Ucp1 = experiment: Induction of Ucp1 and brown adipocytes in TA muscle (RT-qPCR, immunoblot, immunofluorescence, IHC); assay type: in vivo, mouse
Description: To investigate miR-133 function in brown adipose determination of satellite cells in vivo, Applicant synthesized miR-133 antagomiR (miR-133 antisense oligonucleotide (ASO)) with an antisense sequence to both miR-133a and miR-133b, as well as a control “antagomiR” (control ASO) with the same chemical modifications and not antisense to any mouse gene or EST sequence (see Experimental Procedures). Applicant performed lineage tracing to distinguish effects of miR-133 ASO on satellite cells versus other cell types. Six week old Pax7-CreER; R26R-tdTomato mice were treated with tamoxifin as before (5 consecutive daily injections), then aged to 10 weeks of age prior to initiating the experiment. Control ASO versus miR-133 ASO were injected into tibialis anterior (TA) muscles 3 days following saline injection (quiescent state) or cardiotoxin injection (to induce activation). After one month, RT-qPCR was performed using RNA isolated from several tissues to evaluate the efficacy and scope of miR-133 ASO administration.
To investigate whether miR-133 ASO was inducing satellite cells to undergo brown adipose determination in vivo, Applicant performed immunofluorescence microscopy on cross-sections prepared from regenerating TA muscles treated with control- or miR-133 ASO (FIG. 4C-D) Staining for Ucp1 and basal lamina-located Laminin confirmed Ucp1 staining only within miR-133 ASO treated regenerating muscles. […] In addition, Applicant observed that these interstitial cells were immunoreactive to Perilipin A, a marker for differentiated adipocytes, and nuclear Prdm16 (FIG. 4D).
To induce brown adipocytes in vivo, 10 mg/mL Cardiotoxin solution (50 μl) was intramuscularly injected into TA muscles of 10-week old Pax7-CreER/R26R-tdTomato mice (FIG. 4) or C57BL/6 mice (FIG. 5 and FIG. 6). Alternatively, frozen injury was performed by applying liquid nitrogen cooled tweezers tips directly onto the anterior sides of TA muscles. After 3 days, 20 μg of miR-133 antagomiR or control antagomiR in saline (50 μl) was intramuscularly injected into the same injured TA muscles (on right hindlimbs). To test efficacy of miR-133 ASO in intact muscles, saline, instead of Cardiotoxin, was injected to TA muscles before miR-133 ASO administration (FIGS. 4A, 4B). miR-133 antagomiR and scramble antagomiR were designed as previously described (Krutzfeldt et al., 2005).
The following antibodies and dilutions were used: anti-MyHC antibody (MF20, Developmental Studies Hybridoma Bank), 1:20 dilution; anti-Prdm16 antibody (generated in Dr. Patrick Seale's laboratory), 1:1,000 dilution; anti-Perilipin A antibody (Vala Sciences), 1:500 dilution; anti-Ucp1 antibody (Calbiochem), 1:200 dilution; anti-Laminin B2 antibody (Upstate), 1:500 dilution.
The following antibodies and dilutions were used: anti-Prdm16 antibody (generated in Dr. Patrick Seale's laboratory), 1:5,000 dilution; anti-Perilipin A antibody (Vala Sciences), 1:5,000 dilution; anti-Ucp1 antibody (Ab10983, Abeam), 1:1,000 dilution (FIGS. 4B, 5A, 7A); anti-Ucp1 antibody (Calbiochem), 1:1,000 dilution (FIG. 8C); anti-Ucp3 antibody (Ab3477, Abeam), 1:1,000 dilution; anti-Pgc1α antibody (Abeam), 1:1,000 dilution; anti-pan myosin heavy chain (MyHC) antibody (Developmental Studies Hybridoma Bank), 1:500; anti-DsRed (tdTomato) antibody (Ablab), 1:500; anti-α-Tubulin antibody (Sigma-Aldrich), 1:10,000 dilution.
Paraffin embedded tissue sections of TA muscles, inguinal white fat depots (igWAT) and epididymal white fat depots (epiWAT) were deparaffinized in CitriSolv. After rehydration, tissue sections were boiled in 0.01M citrate buffer (1.8 mM citric acid, 8.2 mM sodium citrate, pH 6.0) for 16 minutes. Endogenous peroxidase activity was neutralized by 0.3% H2O2 in 70% methanol Anti-Ucp1 antibody (Calbiochem) was 1:200 diluted and incubated with tissues sections overnight. IHC signals were developed by Vectastain ABC kit. […]

Fndc5 = experiment: qRT-PCR of Fndc5 in ASO treated muscles; assay type: in vivo, mouse; details: both RD and HFD conditions
Protocol: Normalized UCP1 levels were calculated based on the densitometry analysis of the UCP1 immunoblot and the α-Tubulin immunoblot. The interscapular brown adipose tissue (iBAT) were included as a control. Asterisk denotes the loading of the iBAT lanes on the UCP1 immunoblot was 1/100 of other lanes to avoid overloading. (B) Immunohistochemistry (IHC) of UCP1 protein reveal miR-133 antagonism induced beige adipocytes within inguinal and epididymal white adipose tissues. […] Error bars: S.E.M., asterisk: significant pair-wise comparison by t-test, *: p≦0.05, **: p≦0.01, ***: p≦0.001.
Total RNA was extracted from cells by TRIzol or Arcturus® PicoPure® RNA Isolation Kit (Applied Biosystems) following manufactures' recommendations. For RT-qPCR of mRNAs, total RNAs were reverse transcribed into cDNAs by SuperScript III (Invitrogen) and a mixture of oligodT18-20 primers and random hexamers. microRNA RT-qPCRs were performed as previously described (Shi and Chiang, 2005).

[1] = regenerating TA muscle cross-sections

Substance: *mA*mUmAmGmCmUmGmGmUmUmGmAmAmGmGmGmGmAmC*mC*mA*mA*mAChl [miR-133 ASO]
- repression of miR-133a/b and induction of Ucp1 mRNA, duration (Ucp1; 3 months after a single injection in regenerating muscle): long-lasting effects
- Ucp1 protein expression in treated muscles by immunoblotting (Ucp1; C57BL/6 mice, regular diet or high fat diet, 2 months after treatment): ectopically induced
- Ucp1 mRNA within injected regenerating muscle (Ucp1; cardiotoxin-injured TA muscle, one month): increased
- Ucp1 mRNA level in treated TA muscle (Ucp1; frozen injury induced muscle regeneration): similarly induced
- Ucp1 protein by immunoblotting (Ucp1; regenerated TA muscles, Pax7-CreER, R26R-tdTomato mice): specifically detected
- numbers of interstitial cells and ORO-stained cells between regenerating myofibers (Ucp1; regenerating TA muscle): markedly increased
- Prdm16pos cells per cross-section (average) (Ucp1; [1]): 31.6 per cross-section
- Ucp1pos brown adipocytes per section (average) (Ucp1; [1]): 15.6 per section
- share of Prdm16pos cells derived from satellite cells (Ucp1; tdTomato lineage tracing): 76.8%
- share of Ucp1pos brown adipocytes derived from satellite cells (Ucp1; tdTomato lineage tracing): 83.3%
- expression of Fndc5 compared to control muscles (Fndc5): increased
